Source: the supplement of paper PMC6335503

Columns and labels:
Assay in all cases: cell viability, percent of DMSO control (CellTiter-Glo); higher = more viable cells
Conditions in all cases: 72 h
[1] = system: DFTD cell line T1 (06/2887)
Experimental: (§1)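 Eight-point dose titration of 41 screen hits in triplicate wells on four Tasmanian devil DFTD tumour cell lines (T1-T4) and devil fibroblasts, 384-well plates. Viability was read by CellTiter-Glo (ATP) after 72 h at 37 °C. Percent of control per plate: DMSO wells = 100%, positive-control wells = 0%.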

[2] = system: DFTD cell line T2 (05/2569)
Experimental: as §1

[3] = system: DFTD cell line T3 (06/0368)
Experimental: as §1

[4] = system: DFTD cell line T4 (07/0192)
Experimental: as §1

C=CC(=O)N1CCC(Oc2cc3c(Nc4ccc(Cl)c(Cl)c4F)ncnc3cc2OC)CC1 [Poziotinib (HM781-36B)]
cell viability [%]
Conditions | 0.00617 µM | 0.0185 µM | 0.0556 µM | 0.166667 µM | 0.5 µM | 1.5 µM | 4.5 µM | 13.5 µM
[1] | 56.7 | 29.4 | 24.3 | 29.3 | 28 | 24.4 | 26.8 | 26.6
[2] | 87.7 | 49.6 | 41.5 | 38.3 | 39 | 26.8 | 22.5 | 17
[3] | 87 | 52.5 | 44 | 44.6 | 42.2 | 30.8 | 35.9 | 33
[4] | 88.7 | 44.9 | 30.6 | 26.5 | 27.4 | 27.1 | 22.8 | 21.4

COc1cc2ncnc(Nc3ccc(Cl)cc3F)c2cc1OC
cell viability [%]
Conditions | 0.00617 µM | 0.0185 µM | 0.0556 µM | 0.166667 µM | 0.5 µM | 1.5 µM | 4.5 µM | 13.5 µM
[1] | 98.4 | 95.7 | 124 | 110 | 83.1 | 44.3 | 26.7 | 36.9
[2] | 105 | 86.8 | 112 | 116 | 85.2 | 59.5 | 27.6 | 28.3
[3] | 120 | 89.3 | 119 | 97.1 | 85.5 | 66.1 | 43.7 | 47.2
[4] | 116 | 99.5 | 119 | 97 | 93.8 | 75.3 | 45 | 35.2

CCS(=O)(=O)c1cccc(-c2cc(C(=O)NC3CCN(C)CC3)c(C)c3[nH]c4ncc(C)cc4c23)c1 [TAK901]
cell viability [%]
Conditions | 0.00617 µM | 0.0185 µM | 0.0556 µM | 0.166667 µM | 0.5 µM | 1.5 µM | 4.5 µM | 13.5 µM
[1] | 104 | 109 | 113 | 121 | 138 | 59.4 | 12 | -4.29
[2] | 125 | 103 | 127 | 111 | 126 | 42.4 | 1.18 | -1.98
[3] | 106 | 105 | 95.9 | 98.5 | 104 | 42.6 | 4.34 | -3.65
[4] | 99.7 | 109 | 103 | 104 | 96.7 | 26.5 | -1.88 | -6.14

CNC(=O)CN1CCC(Oc2cc3c(Nc4cccc(Cl)c4F)ncnc3cc2OC)CC1 [AZD8931 (Sapitinib)]
cell viability [%]
Conditions | 0.00617 µM | 0.0185 µM | 0.0556 µM | 0.166667 µM | 0.5 µM | 1.5 µM | 4.5 µM | 13.5 µM
[1] | 116 | 104 | 84 | 37.9 | 24.9 | 22.8 | 19.1 | 21.6
[2] | 123 | 111 | 98.5 | 62.1 | 46.5 | 27 | 19.7 | 24.2
[3] | 112 | 95.2 | 102 | 55.9 | 43.4 | 29 | 24.9 | 32.6
[4] | 107 | 111 | 80.8 | 59.7 | 31.9 | 20.9 | 14 | 8.86

CCN1CCN(Cc2ccc(-c3cc4c(N[C@H](C)c5ccccc5)ncnc4[nH]3)cc2)CC1 [AEE788]
cell viability [%]
Conditions | 0.00617 µM | 0.0185 µM | 0.0556 µM | 0.166667 µM | 0.5 µM | 1.5 µM | 4.5 µM | 13.5 µM
[1] | 77.9 | 87.5 | 119 | 61.2 | 35.4 | 23.9 | 29.4 | 17.5
[2] | 77.9 | 96 | 123 | 85.2 | 46.3 | 25.8 | 21 | 6.37
[3] | 93.5 | 110 | 123 | 77.2 | 49.8 | 34.2 | 36.4 | 28.6
[4] | 99.1 | 90 | 104 | 83.8 | 43.4 | 25.1 | 24.8 | 23.4

CC(C)(C)P(=NC(=S)NCCCO)(N1CCCCCC1)N1CCCCCC1 [T0503-0280]
cell viability [%]
Conditions | 0.00617 µM | 0.0185 µM | 0.0556 µM | 0.166667 µM | 0.5 µM | 1.5 µM | 4.5 µM | 13.5 µM
[1] | 94.1 | 106 | 125 | 116 | 96.1 | 50.7 | 24.5 | 19.9
[2] | 107 | 87.6 | 127 | 115 | 92.6 | 68.7 | 14.8 | 27.7
[3] | 106 | 83.3 | 134 | 118 | 99.4 | 66 | 17.6 | 16.1
[4] | 118 | 85.2 | 129 | 105 | 112 | 38.2 | 11.4 | 30.9

CCOc1cc2ncc(C#N)c(Nc3ccc(OCc4ccccn4)c(Cl)c3)c2cc1NC(=O)/C=C/CN(C)C [Neratinib(HKI-272)]
cell viability [%]
Conditions | 0.00617 µM | 0.0185 µM | 0.0556 µM | 0.166667 µM | 0.5 µM | 1.5 µM | 4.5 µM | 13.5 µM
[1] | 97.8 | 92.2 | 125 | 90.5 | 50.7 | 29 | 29.2 | 32.5
[2] | 97 | 98 | 154 | 119 | 93.3 | 45.2 | 45.7 | 39.1
[3] | 92 | 102 | 119 | 96.1 | 92.2 | 39.8 | 42.4 | 36.5
[4] | 99.8 | 88.3 | 114 | 93.5 | 62.4 | 22.9 | 25.4 | 18.8

COc1cc2ncnc(Nc3cccc(Br)c3)c2cc1OC.Cl
cell viability [%]
Conditions | 0.00617 µM | 0.0185 µM | 0.0556 µM | 0.166667 µM | 0.5 µM | 1.5 µM | 4.5 µM | 13.5 µM
[1] | 126 | 99 | 112 | 111 | 63 | 24.8 | 22.8 | 12.4
[2] | 115 | 106 | 106 | 107 | 77 | 40.7 | 32.9 | 21.2
[3] | 127 | 90.2 | 118 | 108 | 89.1 | 49 | 39.8 | 30.8
[4] | 126 | 94 | 105 | 104 | 91 | 48.8 | 28.6 | 17.7

CS(=O)(=O)CCNCc1ccc(-c2ccc3ncnc(Nc4ccc(OCc5cccc(F)c5)c(Cl)c4)c3c2)o1.Cc1ccc(S(=O)(=O)O)cc1.Cc1ccc(S(=O)(=O)O)cc1.O [Lapatinib ditosylate monohydrate]
cell viability [%]
Conditions | 0.00617 µM | 0.0185 µM | 0.0556 µM | 0.166667 µM | 0.5 µM | 1.5 µM | 4.5 µM | 13.5 µM
[1] | 107 | 96.9 | 92.2 | 59.3 | 38.8 | 27.7 | 31.9 | 17.9
[2] | 100 | 88.5 | 87.2 | 74.9 | 58.2 | 41.5 | 40.8 | 24.9
[3] | 104 | 94.6 | 92.3 | 85.4 | 69.8 | 38.4 | 48.1 | 34
[4] | 98.9 | 94 | 94.6 | 68.7 | 60.1 | 29.7 | 38.5 | 24.5

CCOc1cc2ncc(C#N)c(Nc3ccc(F)c(Cl)c3)c2cc1NC(=O)/C=C/CN(C)C [Pelitinib (EKB-569)]
cell viability [%]
Conditions | 0.00617 µM | 0.0185 µM | 0.0556 µM | 0.166667 µM | 0.5 µM | 1.5 µM | 4.5 µM | 13.5 µM
[1] | 82.1 | 115 | 93.5 | 76.8 | 22 | 30.3 | 34.1 | -2.36
[2] | 79.7 | 121 | 111 | 98.2 | 42.1 | 42.4 | 33.2 | 8.16
[3] | 81.3 | 125 | 103 | 76.4 | 58.9 | 39.5 | 33.4 | 36.2
[4] | 83 | 113 | 97.4 | 77.8 | 53.1 | 18.3 | 19.6 | 22.1

COc1cc2c(cc1-c1c(C)noc1C)ncc1[nH]c(=O)n([C@H](C)c3ccccn3)c12 [I-BET151]
cell viability [%]
Conditions | 0.0309 µM | 0.0926 µM | 0.277778 µM | 0.833333 µM | 2.5 µM | 7.5 µM | 22.5 µM | 67.5 µM
[1] | 119 | 126 | 92.8 | 31.3 | 28.6 | 16.7 | 23 | 37.9
[2] | 95.3 | 120 | 141 | 81.4 | 50.3 | 21.1 | 22.3 | 32.5
[3] | 102 | 106 | 117 | 64.5 | 47.6 | 35.1 | 36.6 | 45.2
[4] | 87.7 | 107 | 87.5 | 47.8 | 49.6 | 38.9 | 42.9 | 53

C=CC(=O)Nc1cccc(Nc2nc(Nc3ccc(N4CCN(C(C)=O)CC4)cc3OC)ncc2C(F)(F)F)c1 [Rociletinib (CO-1686, AVL-301)]
cell viability [%]
Conditions | 0.00617 µM | 0.0185 µM | 0.0556 µM | 0.166667 µM | 0.5 µM | 1.5 µM | 4.5 µM | 13.5 µM
[1] | 121 | 114 | 113 | 92.4 | 80.6 | 41.4 | 16.9 | 4.81
[2] | 119 | 108 | 108 | 104 | 86.5 | 63.1 | 33.7 | 12
[3] | 127 | 113 | 94.5 | 99.1 | 101 | 58.2 | 40.4 | 17.4
[4] | 116 | 101 | 102 | 89.6 | 88.6 | 56.6 | 32.4 | 11.9

Cn1cnc2c(F)c(Nc3ccc(Br)cc3Cl)c(C(=O)NOCCO)cc21.O=S(=O)(O)O [Selumetinib (AZD6244)]
cell viability [%]
Conditions | 0.00617 µM | 0.0185 µM | 0.0556 µM | 0.166667 µM | 0.5 µM | 1.5 µM | 4.5 µM | 13.5 µM
[1] | 104 | 100 | 104 | 57 | 41 | 35.4 | 29.1 | 33.4
[2] | 98.8 | 102 | 108 | 63 | 51.7 | 39.3 | 35.4 | 35.8
[3] | 102 | 112 | 99.1 | 75.3 | 63.7 | 56.9 | 42.5 | 50.7
[4] | 89 | 105 | 88 | 62.8 | 56.2 | 46 | 35 | 31.1

C#Cc1cccc(Nc2ncnc3cc(OCCOC)c(OCCOC)cc23)c1.Cl [Erlotinib hydrochloride]
cell viability [%]
Conditions | 0.00617 µM | 0.0185 µM | 0.0556 µM | 0.166667 µM | 0.5 µM | 1.5 µM | 4.5 µM | 13.5 µM
[1] | 138 | 126 | 104 | 87.3 | 86.4 | 38.1 | 29.1 | 14.2
[2] | 124 | 142 | 118 | 90.4 | 98.83 | 56.3 | 33.7 | 18.2
[3] | 121 | 105 | 122 | 93.5 | 87.4 | 60.8 | 47.1 | 30.7
[4] | 117 | 114 | 119 | 99.9 | 104 | 61.7 | 47.2 | 19.7
